Measurements from ChEMBL document CHEMBL1143067, “Novel nitrogen mustard-armed combi-molecules for the selective targeting of epidermal growth factor receptor overexperessing solid tumors: discovery of an unusual structure-activity relationship” (J Med Chem, 2007).
Active and inactive are the calls of the source. The calls are words filed in the database; no cut-off is given here.

system: DU-145; assay: Induction of cell cycle arrest in human DU145 cells assessed as accumulation at mid-S phase at 10 uM after 24 hrs by flow cytometry; assay type: functional, cell-based; conditions: not given

SMILES	Activity
CN(CCCl)CCN/N=N/c1ccc2ncnc(Nc3cccc(Cl)c3)c2c1	Active

system: DU-145; assay: Induction of DNA interstand cross links in human DU145 cells assessed as decrease in comet tail moment after irradiation by single cell gel electrophoresis assay; assay type: functional, cell-based; conditions: not given

SMILES	Activity
CN(CCCl)CCN/N=N/c1ccc2ncnc(Nc3cccc(Cl)c3)c2c1	Dose-dependent effect

system: DU-145; assay: Growth inhibition of human DU145 cells after 3 days by SRB assay; conditions: Homo sapiens, DU-145, 72 h

SMILES	IC50 [µM]
COc1ccc(N(CCCl)CCN/N=N/c2ccc3ncnc(Nc4cccc(Cl)c4)c3c2)cc1	7.95
ClCCN(CCNN=Nc1ccc2ncnc(Nc3cccc(Cl)c3)c2c1)c1ccc(Cl)cc1	4.7
CN(CCCl)CCN/N=N/c1ccc2ncnc(Nc3cccc(Cl)c3)c2c1	2.6
COc1ccc(N(CCN=NNc2ccc3ncnc(Nc4cccc(Cl)c4)c3c2)CC(C)Cl)cc1 (stereo not given)	11.4
CN(C)CCN/N=N/c1ccc2ncnc(Nc3cccc(Cl)c3)c2c1	37.2
ClCCN(CCNN=Nc1ccc2ncnc(Nc3cccc(Cl)c3)c2c1)Cc1ccccc1	10.6

same assay, conditions: du-145

SMILES	IC50 [µM]
Nc1ccc2ncnc(Nc3cccc(Cl)c3)c2c1	34.1

system: DU-145; assay: Induction of cell cycle arrest in human DU145 cells assessed as accumulation at G1 phase at 10 uM after 24 hrs by flow cytometry; assay type: functional, cell-based; conditions: not given

SMILES	Activity
CN(CCCl)CCN/N=N/c1ccc2ncnc(Nc3cccc(Cl)c3)c2c1	Active

system: NIH3T3; assay: Inhibition of serum-stimulated growth of NIH3T3 cells transfected with HER14 after 3 days by SRB assay; conditions: Mus musculus, NIH3T3, 72 h

SMILES	IC50 [µM]
COc1ccc(N(CCCl)CCN/N=N/c2ccc3ncnc(Nc4cccc(Cl)c4)c3c2)cc1	6.22
ClCCN(CCNN=Nc1ccc2ncnc(Nc3cccc(Cl)c3)c2c1)c1ccc(Cl)cc1	12
CN(CCCl)CCN/N=N/c1ccc2ncnc(Nc3cccc(Cl)c3)c2c1	1.31
COc1ccc(N(CCN=NNc2ccc3ncnc(Nc4cccc(Cl)c4)c3c2)CC(C)Cl)cc1 (stereo not given)	5.75
CN(C)CCN/N=N/c1ccc2ncnc(Nc3cccc(Cl)c3)c2c1	1.67
ClCCN(CCNN=Nc1ccc2ncnc(Nc3cccc(Cl)c3)c2c1)Cc1ccccc1	2.93

same assay, conditions: nih3t3

SMILES	IC50 [µM]
Nc1ccc2ncnc(Nc3cccc(Cl)c3)c2c1	3.19

system: NIH3T3; assay: Inhibition of serum-stimulated growth of NIH3T3 cells after 3 days by SRB assay; conditions: Mus musculus, NIH3T3, 72 h

SMILES	IC50 [µM]
COc1ccc(N(CCCl)CCN/N=N/c2ccc3ncnc(Nc4cccc(Cl)c4)c3c2)cc1	9.07
ClCCN(CCNN=Nc1ccc2ncnc(Nc3cccc(Cl)c3)c2c1)c1ccc(Cl)cc1	27.6
CN(CCCl)CCN/N=N/c1ccc2ncnc(Nc3cccc(Cl)c3)c2c1	27.2
COc1ccc(N(CCN=NNc2ccc3ncnc(Nc4cccc(Cl)c4)c3c2)CC(C)Cl)cc1 (stereo not given)	21.5
CN(C)CCN/N=N/c1ccc2ncnc(Nc3cccc(Cl)c3)c2c1	39.5
ClCCN(CCNN=Nc1ccc2ncnc(Nc3cccc(Cl)c3)c2c1)Cc1ccccc1	15.2

same assay, conditions: nih3t3

SMILES	IC50 [µM]
Nc1ccc2ncnc(Nc3cccc(Cl)c3)c2c1	38.4

molecular target: Epidermal growth factor receptor (Homo sapiens, UniProt P00533); assay: Inhibition of EGFR tyrosine kinase expressed in A431 cells; conditions: not given
Sequence (P00533 whole entry): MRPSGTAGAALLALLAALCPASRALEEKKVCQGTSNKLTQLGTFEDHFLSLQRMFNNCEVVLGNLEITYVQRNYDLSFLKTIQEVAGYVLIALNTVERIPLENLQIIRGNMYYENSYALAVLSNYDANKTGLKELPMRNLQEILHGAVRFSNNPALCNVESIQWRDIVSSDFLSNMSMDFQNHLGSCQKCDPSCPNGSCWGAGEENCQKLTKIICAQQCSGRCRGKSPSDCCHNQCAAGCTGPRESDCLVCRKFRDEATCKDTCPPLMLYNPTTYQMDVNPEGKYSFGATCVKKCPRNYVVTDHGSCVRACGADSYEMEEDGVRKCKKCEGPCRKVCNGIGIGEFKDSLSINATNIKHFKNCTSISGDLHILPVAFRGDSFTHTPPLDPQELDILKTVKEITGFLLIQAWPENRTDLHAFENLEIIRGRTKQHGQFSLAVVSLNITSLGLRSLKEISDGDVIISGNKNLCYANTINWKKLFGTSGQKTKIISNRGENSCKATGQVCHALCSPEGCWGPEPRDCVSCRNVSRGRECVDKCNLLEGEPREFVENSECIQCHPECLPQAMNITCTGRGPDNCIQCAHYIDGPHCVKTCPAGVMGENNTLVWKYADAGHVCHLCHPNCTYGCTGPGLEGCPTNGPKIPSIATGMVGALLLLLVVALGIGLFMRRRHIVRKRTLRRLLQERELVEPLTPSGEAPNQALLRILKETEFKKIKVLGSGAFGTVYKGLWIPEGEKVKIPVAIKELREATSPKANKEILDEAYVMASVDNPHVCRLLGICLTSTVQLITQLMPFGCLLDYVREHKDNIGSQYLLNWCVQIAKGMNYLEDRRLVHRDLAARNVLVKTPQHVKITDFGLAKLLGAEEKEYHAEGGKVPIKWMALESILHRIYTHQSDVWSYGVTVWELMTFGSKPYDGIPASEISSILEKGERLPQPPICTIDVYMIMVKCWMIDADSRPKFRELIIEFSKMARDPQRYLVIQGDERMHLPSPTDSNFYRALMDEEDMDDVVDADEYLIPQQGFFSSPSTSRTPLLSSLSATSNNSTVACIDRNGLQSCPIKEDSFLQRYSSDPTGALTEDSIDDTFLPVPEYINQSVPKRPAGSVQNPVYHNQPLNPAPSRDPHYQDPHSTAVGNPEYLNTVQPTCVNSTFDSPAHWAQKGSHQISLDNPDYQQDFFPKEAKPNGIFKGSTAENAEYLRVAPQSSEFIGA

SMILES	IC50 [µM]
COc1ccc(N(CCCl)CCN/N=N/c2ccc3ncnc(Nc4cccc(Cl)c4)c3c2)cc1	3.96
ClCCN(CCNN=Nc1ccc2ncnc(Nc3cccc(Cl)c3)c2c1)c1ccc(Cl)cc1	2.2
CN(CCCl)CCN/N=N/c1ccc2ncnc(Nc3cccc(Cl)c3)c2c1	0.0044
COc1ccc(N(CCN=NNc2ccc3ncnc(Nc4cccc(Cl)c4)c3c2)CC(C)Cl)cc1 (stereo not given)	0.97
CN(C)CCN/N=N/c1ccc2ncnc(Nc3cccc(Cl)c3)c2c1	0.037
ClCCN(CCNN=Nc1ccc2ncnc(Nc3cccc(Cl)c3)c2c1)Cc1ccccc1	0.071
